Assay results: patent US10905680B2, “Methods of treatment for cholestatic and fibrotic diseases” (Genfit, priority 2016, dated 2021)

Columns and labels:
[1] = tested on: Normal Human Dermal Fibroblasts (NHDF); assay: ACTA2 transcripts in TGFβ1-induced normal human dermal fibroblasts (RT-qPCR); format: cell-based; conditions: TGFβ1 10 ng/ml, 24 hours
Protocol: Serum-deprived normal human dermal fibroblasts (NHDF) were preincubated for 1 hour with NTZ (A) or TZ (B) before the activation with TGFβ1 (10 ng/ml). After 24 hours of incubation, the expression of ACTA2 was measured by RT-qPCR. The expression values were then transformed as fold induction over TGFβ1 control. Data are presented as mean (triplicates)±SEM (Standard Error of Mean). Statistical analyses were performed by a student's t-test (for TGFβ-stimulated vs unstimulated conditions); [#: p<0.05; ## p<0.01; ### p<0.001] or by aone-way ANOVA followed by Bonferroni post-hoc tests (for compound-treated samples vs TGFβ1 control). [*: p<0.05; **: p<0.01; ***: p<0.001], using GraphPad Prism 7.04 software.
Normal Human Dermal Fibroblasts (NHDF) (Lonza) were cultured in Fibroblast Basal Medium (FBM) (Lonza cat # CC-3131) supplemented with FGM-2 SingleQuots™ Kit (Lonza cat # CC-3132) and 2% FBS. […]
Quantitative PCR was then carried out using the MyiQ Single-Color Real-Time PCR Detection System (Biorad). […]
For each gene, the standard curves were drawn by selecting the best points (at least three points) in order to have PCR reaction efficiency close to 100% and a correlation coefficient close to 1. Expression levels were determined using the standard curve equation for both the housekeeping gene and the target gene (taking into account the specific PCR efficiency of each target gene).

[2] = tested on: Human Intestinal Myofibroblasts (InMyoFib); assay: TGFβ1-induced expression of α-SMA protein in human intestinal fibroblasts (ELISA); format: cell-based; conditions: concentration of 1 μM; TGFβ1 3 ng/ml, 48 hours
Protocol: NTZ (A) or TZ (B) were added to serum-deprived intestinal fibroblasts (InMyoFib) 1 hour before the activation with TGFβ1 (3 ng/ml). After 48 hours of incubation, the expression of α-SMA was measured by ELISA. The obtained values were transformed into percentage inhibition over TGFβ1 control. Data are presented as mean (triplicates)±standard deviation (SD). Statistical analyses were performed by one-way ANOVA followed by Bonferroni post-hoc tests, using Sigma Plot 11.0 software. [*: p<0.05; **: p<0.01; ***: p<0.001 (comparison versus TGFβ1 3 ng/mL group)].
The Human Intestinal Myofibroblasts (InMyoFib) (Lonza) were cultured in Smooth Muscle Cell Basal Medium (SmBM-2™) (Lonza cat # CC-3181) that was supplemented with SmGM™-2 BulletKit™ (Lonza cat # CC-4149). The complete medium contains 5% fetal bovine serum. For the activation experiments with TGFβ1, the inMyoFib were plated at a density of 10×10^3 cells per well in 96-well plates. The next day, cell-culture medium was removed, and cells were washed with PBS (Invitrogen cat #14190). InMyoFib were deprived for 24 hours in serum-free, insulin-free and rhFGF-B-free medium. […]
The level of α-SMA was measured using a Sandwich ELISA. […]

Structure (SMILES): O=C(Nc1ncc([N+](=O)[O-])s1)c1ccccc1O [TZ, 2-hydroxy-N-(5-nitro-2-thiazolyl)benzamide]
- antifibrotic effects (ACTA2 transcripts) in TGFβ-activated normal human dermal fibroblasts [1]: significant and dose-dependent antifibrotic effects
- antifibrotic effects (α-SMA) in human Intestinal myofibroblasts [2]: significant antifibrotic effects
